Activity calls are given as the source filed them. No cut-off for these calls is given here.
Columns and labels:
Format in all cases: cell-based
[1] = biological target: T1, Sodium-dependent dopamine transporter (Homo sapiens, UniProt Q01959); assay: Displacement of [3H]WIN-35428 from human dopamine transporter expressed in mouse N2A cells by scintillation counting
[2] = biological target: T1, Sodium-dependent dopamine transporter; assay: Inhibition of [3H]dopamine uptake at human dopamine transporter expressed in mouse N2A cells by scintillation counting
[3] = biological target: Sodium-dependent dopamine transporter (Rattus norvegicus) (UniProt P23977); assay: Binding affinity to rat dopamine transporter expressed in pig LLC-PK1 cells assessed as drug incorporation at 30 nM after 1 hr by SDS-PAGE analysis; settings: tested as the 125I-labelled form
[4] = biological target: Sodium-dependent dopamine transporter (Rattus norvegicus) (UniProt P23977); assay: Binding affinity to rat dopamine transporter expressed in pig LLC-PK1 cells assessed as drug incorporation at 30 nM after 1 hr by SDS-PAGE analysis in presence of cocaine; settings: tested as the 125I-labelled form

T1 sequence (Q01959 whole entry): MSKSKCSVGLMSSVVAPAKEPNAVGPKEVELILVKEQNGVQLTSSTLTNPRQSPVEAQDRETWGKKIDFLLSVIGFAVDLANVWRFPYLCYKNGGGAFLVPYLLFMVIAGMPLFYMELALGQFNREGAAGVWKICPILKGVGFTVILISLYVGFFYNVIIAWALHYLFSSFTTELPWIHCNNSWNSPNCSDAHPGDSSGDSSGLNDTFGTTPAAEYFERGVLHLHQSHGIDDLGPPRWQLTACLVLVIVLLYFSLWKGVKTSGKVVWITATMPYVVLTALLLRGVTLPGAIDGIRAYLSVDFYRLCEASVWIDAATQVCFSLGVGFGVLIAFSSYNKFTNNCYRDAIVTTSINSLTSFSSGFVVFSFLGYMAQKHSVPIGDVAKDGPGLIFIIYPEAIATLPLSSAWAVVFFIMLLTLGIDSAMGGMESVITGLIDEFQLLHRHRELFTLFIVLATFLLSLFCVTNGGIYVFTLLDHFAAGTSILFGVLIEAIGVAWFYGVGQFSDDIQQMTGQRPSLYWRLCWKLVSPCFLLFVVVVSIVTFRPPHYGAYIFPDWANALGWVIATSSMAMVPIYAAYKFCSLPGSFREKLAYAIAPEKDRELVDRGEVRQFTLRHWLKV
Chain of Sodium-dependent dopamine transporter (Rattus norvegicus) (P23977 whole entry): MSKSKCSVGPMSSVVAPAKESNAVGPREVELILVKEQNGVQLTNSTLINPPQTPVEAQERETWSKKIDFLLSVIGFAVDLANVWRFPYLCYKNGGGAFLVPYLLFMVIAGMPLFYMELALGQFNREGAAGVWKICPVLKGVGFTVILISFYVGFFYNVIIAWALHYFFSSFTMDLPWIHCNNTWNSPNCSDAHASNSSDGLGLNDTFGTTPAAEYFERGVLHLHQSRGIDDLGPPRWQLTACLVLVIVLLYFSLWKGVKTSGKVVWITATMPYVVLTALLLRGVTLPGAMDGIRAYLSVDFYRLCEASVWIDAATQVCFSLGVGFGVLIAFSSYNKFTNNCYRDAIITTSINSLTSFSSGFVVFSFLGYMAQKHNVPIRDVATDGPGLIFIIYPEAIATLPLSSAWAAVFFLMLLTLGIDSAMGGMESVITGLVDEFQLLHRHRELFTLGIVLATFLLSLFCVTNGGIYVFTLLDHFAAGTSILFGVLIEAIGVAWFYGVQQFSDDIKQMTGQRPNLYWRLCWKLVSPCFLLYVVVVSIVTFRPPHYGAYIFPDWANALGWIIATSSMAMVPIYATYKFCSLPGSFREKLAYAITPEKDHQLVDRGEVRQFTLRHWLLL

SMILES | Ki [1] [nM] | IC50 [2] [nM] | Activity [3] | Activity [4]
CCCC(C(=O)c1ccc(N)c(I)c1)N1CCCC1 (stereo not given) | 28 | 175 | – | –
CCCC(C(=O)c1ccc(N)cc1)N1CCCC1 (stereo not given) | 5 | 7 | – | –
CCCC(C(=O)c1ccc(N=[N+]=[N-])c(I)c1)N1CCCC1 (stereo not given) | 78 | 264 | Active | inactive
CCCC(C(=O)c1ccc(C)cc1)N1CCCC1 (stereo not given) [PYROVALERONE] | 8 | 32 | – | –
